In patent publication US20250049035A1, “MICROBIOCIDAL BICYCLE HETEROCYCLIC DERIVATIVES” (SYNGENTA CROP PROTECTION AG, priority 2021, published 2025):

Columns and labels:
[1] = system: Botryotinia fuckeliana (Botrytis cinerea); assay: Botryotinia fuckeliana (Botrytis cinerea) / liquid culture (gray mould); format: cell-based; settings: liquid culture (Vogels broth), growth inhibition photometrically 3-4 days after application, compared to untreated control
Description: (§1) Example B2: Botryotinia fuckeliana (Botrytis cinerea)/Liquid Culture (Gray Mould) Conidia of the fungus from cryogenic storage are directly mixed into a nutrient broth (Vogels broth). After placing a DMSO solution of test compound into a microtiter plate (96-well format), the nutrient broth containing the fungal spores is added. The test plates are incubated at 24° C. and the inhibition of growth is determined photometrically 3-4 days after application.

Pyrenophora teres = Pyrenophora teres / barley / leaf disc preventative (net blotch); format: in vivo; settings: foliar, barley leaf segments cv. Hasso, inoculated 2 days after application, assessed 5-7 days after application, compared to untreated control
Description: Example B12: Pyrenophora teres/Barley/Leaf Disc Preventative (Net Blotch) Barley leaf segments cv. Hasso are placed on agar in a multiwell plate (24-well format) and sprayed with the formulated test compound diluted in water. The leaf segments are inoculated with a spore suspension of the fungus 2 days after application. The inoculated leaf segments are incubated at 20° C. and 65% relative humidity under a light regime of 12 h light/12 h darkness in a climate cabinet and the activity of a compound is assessed as disease control compared to untreated when an appropriate level of disease damage appears in untreated check leaf segments (5-7 days after application).

[2] = system: Phaeosphaeria nodorum (Septoria nodorum); assay: Phaeosphaeria nodorum (Septoria nodorum) / wheat / leaf disc preventative (glume blotch); format: in vivo; settings: Parastagonospora nodorum, foliar, wheat leaf segments cv. Kanzler, inoculated 2 days after application, assessed 5-7 days after application, compared to untreated control
Description: Example B8: Phaeosphaeria Nodorum (Septoria nodorum)/Wheat/Leaf Disc Preventative (Glume Blotch) Wheat leaf segments cv. Kanzler are placed on agar in a multiwell plate (24-well format) and sprayed with the formulated test compound diluted in water. The leaf disks are inoculated with a spore suspension of the fungus 2 days after application. The inoculated test leaf disks are incubated at 20° C. and 75% relative humidity under a light regime of 12 h light/12 h darkness in a climate cabinet and the activity of a compound is assessed as percent disease control compared to untreated when an appropriate level of disease damage appears in untreated check leaf disks (5-7 days after application).

[3] = system: Monographella nivalis (Microdochium nivale); assay: Monographella nivalis (Microdochium nivale) / liquid culture (foot rot cereals); format: cell-based; settings: liquid culture (potato dextrose broth), growth inhibition photometrically 4-5 days after application, compared to untreated control
Description: as §1, with “B9: Monographella nivalis (Microdochium nivale)/Liquid” for “B2: Botryotinia fuckeliana (Botrytis cinerea)/Liquid”, “(Foot Rot Cereals)” for “(Gray Mould)”, “(potato dextrose” for “(Vogels”, “4-5” for “3-4”

[4] = system: Mycosphaerella graminicola (Septoria tritici); assay: Mycosphaerella graminicola (Septoria tritici) / liquid culture (Septoria blotch); format: cell-based; settings: Zymoseptoria tritici, liquid culture (potato dextrose broth), growth inhibition photometrically 4-5 days after application, compared to untreated control
Description: as §1, with “B15: Mycosphaerella graminicola (Septoria tritici/Liquid” for “B2: Botryotinia fuckeliana (Botrytis cinerea)/Liquid”, “(Septoria Blotch)” for “(Gray Mould)”, “(potato dextrose” for “(Vogels”, “4-5” for “3-4”

[5] = system: Mycosphaerella arachidis (Cercospora arachidicola); assay: Mycosphaerella arachidis (Cercospora arachidicola) / liquid culture (early leaf spot); format: cell-based; settings: liquid culture (potato dextrose broth), growth inhibition photometrically 4-5 days after application, compared to untreated control
Description: as §1, with “B10: Mycosphaerella arachidis (Cercospora arachidicola)/Liquid” for “B2: Botryotinia fuckeliana (Botrytis cinerea)/Liquid”, “(Early Leaf Spot)” for “(Gray Mould)”, “(potato dextrose broth)” for “(Vogels broth).”, “4-5” for “3-4”

[6] = system: Glomerella lagenarium (Colletotrichum lagenarium); assay: Glomerella lagenarium (Colletotrichum lagenarium) / liquid culture (anthracnose); format: cell-based; settings: Colletotrichum orbiculare, liquid culture (potato dextrose broth), growth inhibition photometrically 3-4 days after application, compared to untreated control
Description: as §1, with “B3: Glomerella lagenarium (Colletotrichum lagenarium)/Liquid” for “B2: Botryotinia fuckeliana (Botrytis cinerea)/Liquid”, “(Anthracnose)” for “(Gray Mould)”, “(potato dextrose” for “(Vogels”, “measured” for “determined”

Alternaria solani = Alternaria solani / tomato / leaf disc (early blight); format: in vivo; settings: foliar, tomato leaf disks cv. Baby, inoculated 2 days after application, assessed 5-7 days after application, compared to untreated control
Description: Example B1: Alternaria solani/Tomato/Leaf Disc (Early Blight) Tomato leaf disks cv. Baby are placed on agar in multiwell plates (24-well format) and sprayed with the formulated test compound diluted in water. The leaf disks are inoculated with a spore suspension of the fungus 2 days after application. The inoculated leaf disks are incubated at 23° C./21° C.

Cn1cc(C2(C)CN(C(=O)c3nnc(-c4ccc(F)cc4F)s3)Cc3ccsc32)cn1 (centres unmarked) [Compound P-22, [5-(2,4-difluorophenyl)-1,3,4-thiadiazol-2-yl]-[7-methyl-7-(1-methylpyrazol-4-yl)-4,6-dihydrothieno[3,2-c]pyridin-5-yl]methanone]
≥ 80%: inhibition of growth at 20 ppm [1] | pest or weed control at 200 ppm (Pyrenophora teres) | pest or weed control at 200 ppm [2] | inhibition of growth at 20 ppm [3] | inhibition of growth at 20 ppm [4] | inhibition of growth at 20 ppm [5] | inhibition of growth at 20 ppm [6]

Cn1cc(C2CN(C(=O)c3cc(-c4ccc(F)cc4F)on3)Cc3cnsc32)cn1 (centres unmarked) [Compound P-23, [5-(2,4-difluorophenyl)isoxazol-3-yl]-[7-(1-methylpyrazol-4-yl)-6,7-dihydro-4H-isothiazolo[4,5-c]pyridin-5-yl]methanone]
≥ 80%: inhibition of growth at 20 ppm [3] | inhibition of growth at 20 ppm [4] | pest or weed control at 200 ppm (Alternaria solani) | inhibition of growth at 20 ppm [6]

C[C@H]1c2ccsc2[C@@](C)(c2cnn(C)c2)CN1C(=O)c1nnc(-c2ccc(F)cc2F)s1 (racemic) [Compound P-8, [5-(2,4-difluorophenyl)-1,3,4-thiadiazol-2-yl]-[rac-(4R,7R)-4,7-dimethyl-7-(1-methylpyrazol-4-yl)-4,6-dihydrothieno[3,2-c]pyridin-5-yl]methanone]
≥ 80%: inhibition of growth at 20 ppm [1] | pest or weed control at 200 ppm (Pyrenophora teres) | inhibition of growth at 20 ppm [3] | inhibition of growth at 20 ppm [4] | inhibition of growth at 20 ppm [5] | pest or weed control at 200 ppm (Alternaria solani) | inhibition of growth at 20 ppm [6]

C[C@@H]1c2sccc2[C@](C)(c2cnn(C)c2)CN1C(=O)c1nnc(-c2ccc(F)cc2F)s1 [Compound P-5, [5-(2,4-difluorophenyl)-1,3,4-thiadiazol-2-yl]-[(4S,7R)-4,7-dimethyl-4-(1-methylpyrazol-4-yl)-5,7-dihydrothieno[2,3-c]pyridin-6-yl]methanone]
≥ 80%: inhibition of growth at 20 ppm [5] | inhibition of growth at 20 ppm [6]

Cc1nn(C)c(C)c1C1CN(C(=O)c2cc(-c3ccc(F)cc3F)on2)Cc2ccsc21 (centres unmarked) [Compound P-37, [5-(2,4-difluorophenyl)isoxazol-3-yl]-[7-(1,3,5-trimethylpyrazol-4-yl)-6,7-dihydro-4H-thieno[3,2-c]pyridin-5-yl]methanone]
≥ 80%: inhibition of growth at 20 ppm [3] | inhibition of growth at 20 ppm [4] | inhibition of growth at 20 ppm [5] | pest or weed control at 200 ppm (Alternaria solani)

C[C@@H]1c2sccc2[C@@H](c2cnn(C)c2)CN1C(=O)c1nnc(-c2ccc(F)cc2F)s1 (racemic) [Compound P-16, [5-(2,4-difluorophenyl)-1,3,4-thiadiazol-2-yl]-[rac-(4R,7R)-7-methyl-4-(1-methylpyrazol-4-yl)-5,7-dihydro-4H-thieno[2,3-c]pyridin-6-yl]methanone]
≥ 80%: inhibition of growth at 20 ppm [4]

Cc1c([C@@H]2CN(C(=O)c3cc(-c4ccc(F)cc4F)on3)Cc3ccsc32)cnn1C [Compound P-4, [5-(2,4-difluorophenyl)isoxazol-3-yl]-[(7R)-7-(1,5-dimethylpyrazol-4-yl)-6,7-dihydro-4H-thieno[3,2-c]pyridin-5-yl]methanone]
≥ 80%: pest or weed control at 200 ppm (Pyrenophora teres) | pest or weed control at 200 ppm [2] | inhibition of growth at 20 ppm [3] | inhibition of growth at 20 ppm [4] | pest or weed control at 200 ppm (Alternaria solani) | inhibition of growth at 20 ppm [6]

Cn1cc(C2CN(C(=O)c3cc(-c4ccc(F)cc4F)on3)Cc3cscc32)cn1 (centres unmarked) [Compound P-29]
≥ 80%: inhibition of growth at 20 ppm [1] | pest or weed control at 200 ppm [2] | inhibition of growth at 20 ppm [3] | inhibition of growth at 20 ppm [4] | inhibition of growth at 20 ppm [5] | pest or weed control at 200 ppm (Alternaria solani) | inhibition of growth at 20 ppm [6]

Cc1c(C2CN(C(=O)c3cc(-c4ccccc4F)on3)Cc3sccc32)cnn1C (centres unmarked) [Compound P-31, [4-(1,5-dimethylpyrazol-4-yl)-5,7-dihydro-4H-thieno[2,3-c]pyridin-6-yl]-[5-(2-fluorophenyl)isoxazol-3-yl]methanone]
≥ 80%: inhibition of growth at 20 ppm [1] | pest or weed control at 200 ppm (Pyrenophora teres) | pest or weed control at 200 ppm [2] | inhibition of growth at 20 ppm [3] | inhibition of growth at 20 ppm [4] | inhibition of growth at 20 ppm [5] | pest or weed control at 200 ppm (Alternaria solani) | inhibition of growth at 20 ppm [6]

C[C@@H]1c2sccc2[C@H](c2cnn(C)c2)CN1C(=O)c1nnc(-c2ccc(F)cc2F)s1 [Compound P-1, [5-(2,4-difluorophenyl)-1,3,4-thiadiazol-2-yl]-[(4S,7R)-7-methyl-4-(1-methylpyrazol-4-yl)-5,7-dihydro-4H-thieno[2,3-c]pyridin-6-yl]methanone]
≥ 80%: inhibition of growth at 20 ppm [3] | inhibition of growth at 20 ppm [4]

CC1c2ccsc2C(C)(c2cnn(C)c2)CN1C(=O)c1cc(-c2ccc(F)cc2F)on1 (centres unmarked) [Compound P-20, [5-(2,4-difluorophenyl)isoxazol-3-yl]-[4,7-dimethyl-7-(1-methylpyrazol-4-yl)-4,6-dihydrothieno[3,2-c]pyridin-5-yl]methanone]
≥ 80%: inhibition of growth at 20 ppm [1] | pest or weed control at 200 ppm [2] | inhibition of growth at 20 ppm [4] | inhibition of growth at 20 ppm [5] | pest or weed control at 200 ppm (Alternaria solani) | inhibition of growth at 20 ppm [6]

Cc1c(C2CN(C(=O)c3cc(-c4ccc(F)cc4F)on3)Cc3ncsc32)cnn1C (centres unmarked) [Compound P-28, [5-(2,4-difluorophenyl)isoxazol-3-yl]-[7-(1,5-dimethylpyrazol-4-yl)-6,7-dihydro-4H-thiazolo[4,5-c]pyridin-5-yl]methanone]
≥ 80%: pest or weed control at 200 ppm (Pyrenophora teres) | pest or weed control at 200 ppm [2] | inhibition of growth at 20 ppm [3] | inhibition of growth at 20 ppm [4] | inhibition of growth at 20 ppm [5] | pest or weed control at 200 ppm (Alternaria solani) | inhibition of growth at 20 ppm [6]

Cn1cc(C2CN(C(=O)c3cc(-c4ccc(F)cc4F)on3)Cc3sncc32)cn1 (centres unmarked) [Compound P-26, [5-(2,4-difluorophenyl)isoxazol-3-yl]-[4-(1-methylpyrazol-4-yl)-5,7-dihydro-4H-isothiazolo[5,4-c]pyridin-6-yl]methanone]
≥ 80%: inhibition of growth at 20 ppm [1] | pest or weed control at 200 ppm [2] | inhibition of growth at 20 ppm [3] | inhibition of growth at 20 ppm [4] | pest or weed control at 200 ppm (Alternaria solani) | inhibition of growth at 20 ppm [6]

Cc1nn(C)c(C)c1C1CN(C(=O)c2cc(-c3ccc(F)cc3F)on2)Cc2sccc21 (centres unmarked) [Compound P-36, [5-(2,4-difluorophenyl)isoxazol-3-yl]-[4-(1,3,5-trimethylpyrazol-4-yl)-5,7-dihydro-4H-thieno[2,3-c]pyridin-6-yl]methanone]
≥ 80%: inhibition of growth at 20 ppm [1] | pest or weed control at 200 ppm (Pyrenophora teres) | inhibition of growth at 20 ppm [3] | inhibition of growth at 20 ppm [4] | inhibition of growth at 20 ppm [5] | pest or weed control at 200 ppm (Alternaria solani) | inhibition of growth at 20 ppm [6]
